Read-outs that look alike come from different tables or passages of the source.
What was measured:
Format in all cases: cell-based
[1] = test system: Human esophageal cancer cells OE33; experiment: Tumor cell growth inhibitory activity (CCK-8), OE33
Protocol: (§1) Human esophageal cancer cells OE33 (human breast adenocarcinoma cells SK-BR-3, or human gastric cancer cells NCI-N87) was cultured in RPMI1640 (Cellmax) supplemented with 10% fetal bovine serum (Cellmax). Cells in the exponential growth phase were diluted to a concentration of 1×10^5 cells/mL by culture medium and added to 96-well cell culture plates at 100 μL per well, then returned back and incubated overnight in a 37° C. incubator with 5% CO2. On the following day, the compounds were diluted to concentrations of 10000 nM, 2000 nM, 400 nM, 80 nM, 16 nM, 3.2 nM, 0.64 nM, and 0.13 nM by culture medium and the diluted compounds were added to the 96-well cell culture plates at 2 μL per well, with three replicate wells for each concentration. Negative control and blank control groups without addition of compounds were added with 2 μL of the dilution liquid per well. After the addition of the compounds, the plates were returned back to the 37° C. incubator with 5% CO2 to continue the incubation for 72 h. After the incubation, the cell culture plates were removed, and the culture medium was aspirated using a pipette. Then, 100 μL of culture medium containing 10% CCK-8 was added to each well, and the plates were incubated at 37° C. for 3 h. After the incubation, the plates were removed, kept in the dark, and placed in an ELISA plate. Absorbance was measured at 630 nm as the reference wavelength and 450 nm as the test wavelength. The IC50 values (Table 2) were calculated using the four-parameter logistic regression method in GraphPad.

MDA-MB-231 = experiment: Tumor cell growth inhibitory activity, MDA-MB-231; settings: MDA-MB-231 cells, read-out: IC50 (nM) for inhibiting the growth of tumor cells, MDA-MB-231
[2] = test system: human gastric cancer cells NCI-N87; experiment: Tumor cell growth inhibitory activity (CCK-8), NCI-N87
Protocol: as §1

[3] = test system: human breast adenocarcinoma cells SK-BR-3; experiment: Tumor cell growth inhibitory activity (CCK-8), SK-BR-3
Protocol: as §1

NCI-H1975 = experiment: Tumor cell growth inhibitory activity, NCI-H1975
[4] = Homo sapiens, OE33 cells, 72 h incubation, CCK-8, read-out: IC50 (nM) for inhibiting the growth of tumor cells, OE33
[5] = Homo sapiens, NCI-N87 cells, 72 h incubation, CCK-8, read-out: IC50 (nM) for inhibiting the growth of tumor cells, NCI-N87
[6] = Homo sapiens, SK-BR-3 cells, 72 h incubation, CCK-8, read-out: IC50 (nM) for inhibiting the growth of tumor cells, SK-BR-3
[7] = Homo sapiens, NCI-H1975 cells, read-out: IC50 (nM) for inhibiting the growth of tumor cells, NCI-H1975
[8] = Homo sapiens, OE33, 72 h, read-out: IC50 (nM) for inhibiting the growth of tumor cells, OE33, OE33 cells, 72 h incubation, CCK-8
[9] = Homo sapiens, NCI-N87, 72 h, read-out: IC50 (nM) for inhibiting the growth of tumor cells, NCI-N87, NCI-N87 cells, 72 h incubation, CCK-8
[10] = Homo sapiens, SK-BR-3, 72 h, read-out: IC50 (nM) for inhibiting the growth of tumor cells, SK-BR-3, SK-BR-3 cells, 72 h incubation, CCK-8
[11] = Homo sapiens, NCI-H1975, read-out: IC50 (nM) for inhibiting the growth of tumor cells, NCI-H1975, NCI-H1975 cells

Compound	IC50 [1, 4]	IC50 (MDA-MB-231; Homo sapiens)	IC50 [2, 5]	IC50 [3, 6]	IC50 (NCI-H1975; [7])	further results
CC[C@@]1(O)C(=O)OCc2c1cc1n(c2=O)Cc2c-1nc1cc(F)c(C)cc1c2CCNC(C)=O [Compound 1, 7-(2-Acetylamino)ethyl-10-methyl-11-fluorocamptothecin]	21.3 nM	350 nM	3.78 nM	19.5 nM	361 nM	
CC[C@@]1(O)C(=O)OCc2c1cc1n(c2=O)Cc2c-1nc1cc(F)c(C)cc1c2CCNC(=O)C(F)F [Compound 2, 7-(2-Difluoroacetylamino)ethyl-10-methyl-11-fluorocamptothecin]	9.02 nM		1.9 nM	16.6 nM	101 nM	
CC[C@@]1(O)C(=O)OCc2c1cc1n(c2=O)Cc2c-1nc1cc(F)c(C)cc1c2CCNC1CCOCC1 [Compound 4, 7-(2-(Tetrahydropyran-4-yl)amino)ethyl-10-methyl-11-fluorocamptothecin]	4.39 nM	321 nM	2.48 nM	6.12 nM	247 nM	
CC[C@@]1(O)C(=O)OCc2c1cc1n(c2=O)Cc2c-1nc1cc(F)c(C)cc1c2CCN1CCNCC1 [Compound 5, 7-(2-(piperazin-4-yl))ethyl-10-methyl-11-fluorocamptothecin]	44 nM		5.66 nM	60.4 nM	77.3 nM	
CC[C@@]1(O)C(=O)OCc2c1cc1n(c2=O)Cc2c-1nc1cc(F)c(C)cc1c2CCNC1CCC(O)CC1 (stereo partly drawn) [Compound 6, 7-(2-(4-Hydroxycyclohexyl)amino)ethyl-10-methyl-11-fluorocamptothecin]	24.4 nM		3.85 nM	28.7 nM	298 nM	
CC[C@@]1(O)C(=O)OCc2c1cc1n(c2=O)Cc2c-1nc1cc(F)c(C)cc1c2CCNC1CCC(OC)CC1 (stereo partly drawn) [Compound 7, 7-(2-(4-Methoxycyclohexyl)amino)ethyl-10-methyl-11-fluorocamptothecin]	6.46 nM	147 nM	2.02 nM	22.2 nM	92.2 nM	
CC[C@@]1(O)C(=O)OCc2c1cc1n(c2=O)Cc2c-1nc1cc(F)c(C)cc1c2CCNCCN=[N+]=[N-] [Compound 8, 7-(2-(2-Azidoethyl)amino)ethyl-10-methyl-11-fluorocamptothecin]	3.26 nM	80.4 nM	0.68 nM	4.92 nM	18.5 nM	
CC[C@@]1(O)C(=O)OCc2c1cc1n(c2=O)Cc2c-1nc1cc(F)c(C)cc1c2CCN[C@@H](C)CCO [Compound 9, 7-(2-((S)-4-Hydroxybutan-2-yl)amino)ethyl-10-methyl-11-fluorocamptothecin]	6.59 nM	173 nM	1.6 nM	14.1 nM	121 nM	
CC[C@@]1(O)C(=O)OCc2c1cc1n(c2=O)Cc2c-1nc1cc(F)c(F)cc1c2CCNCCO [Compound 10, 7-(2-Hydroxyethylamino)ethyl-10,11-difluorocamptothecin]	58.3 nM		8.17 nM	76.5 nM		
CC[C@@]1(O)C(=O)OCc2c1cc1n(c2=O)Cc2c-1nc1cc(F)c(F)cc1c2CCN[C@@H](C)COC [Compound 11, 7-(2-((S)-2-Methoxyisopropyl)amino)ethyl-10,11-difluorocamptothecin]	7.26 nM	157 nM	1.67 nM	19.2 nM	12.6 nM	
CC[C@@]1(O)C(=O)OCc2c1cc1n(c2=O)Cc2c-1nc1cc(F)c(F)cc1c2CCNC1CCC(O)CC1 (stereo partly drawn) [Compound 12, 7-(2-(4-Hydroxycyclohexyl)amino)ethyl-10,11-difluorocamptothecin]	43 nM		5.47 nM	41.7 nM	85.6 nM	
CC[C@@]1(O)C(=O)OCc2c1cc1n(c2=O)Cc2c-1nc1cc(F)c(F)cc1c2CCNC1CCOCC1 [Compound 13, 7-(2-(Tetrahydropyran-4-yl)amino)ethyl-10,11-difluorocamptothecin]	1.96 nM	72.7 nM	0.93 nM	5.63 nM	9.83 nM	
CC[C@@]1(O)C(=O)OCc2c1cc1n(c2=O)Cc2c-1nc1cc(F)c(F)cc1c2CCNC1CCC(OC)CC1 (stereo partly drawn) [Compound 14, 7-(2-(4-Methoxycyclohexyl)amino)ethyl-10,11-difluorocamptothecin]	26.1 nM	460 nM	5.3 nM	36.1 nM	383 nM	
CC[C@@]1(O)C(=O)OCc2c1cc1n(c2=O)Cc2c-1nc1cc(F)c(F)cc1c2CCNCCN=[N+]=[N-] [Compound 15, 7-(2-(2-Azidoethyl)amino)ethyl-10,11-difluorocamptothecin]	32.3 nM		1.02 nM	7.5 nM	115 nM	
CC[C@@]1(O)C(=O)OCc2c1cc1n(c2=O)Cc2c-1nc1cc3c(cc1c2CCNCCN=[N+]=[N-])OCO3 [Compound 16, 7-(2-(2-Azidoethyl)amino)ethyl-10,11-methylenedioxycamptothecin]						IC50 ([1]; read-out: IC50 (nM) for inhibiting the growth of tumor cells, OE33, OE33 cells, 72 h incubation, CCK-8): 3.13 nM; IC50 (MDA-MB-231): 116 nM; IC50 ([2]; read-out: IC50 (nM) for inhibiting the growth of tumor cells, NCI-N87, NCI-N87 cells, 72 h incubation, CCK-8): 1.01 nM; IC50 ([3]; read-out: IC50 (nM) for inhibiting the growth of tumor cells, SK-BR-3, SK-BR-3 cells, 72 h incubation, CCK-8): 8.96 nM; IC50 (NCI-H1975; read-out: IC50 (nM) for inhibiting the growth of tumor cells, NCI-H1975, NCI-H1975 cells): 9.22 nM
CC[C@@]1(O)C(=O)OCc2c1cc1n(c2=O)Cc2c-1nc1cc3c(cc1c2CCNC1CCC(O)CC1)OCO3 (stereo partly drawn) [Compound 26, 7-(2-(4-Hydroxycyclohexyl)amino)ethyl-10,11-methylenedioxycamptothecin]						IC50 [1, 8]: 129 nM; IC50 [2, 9]: 150 nM; IC50 [3, 10]: 218 nM
CC[C@@]1(O)C(=O)OCc2c1cc1n(c2=O)Cc2c-1nc1cc3c(cc1c2CCN[C@@H](C)CO)OCO3 [Compound 28, 7-(2-((S)-Hydroxyisopropyl)amino)ethyl-10,11-methylenedioxycamptothecin]						IC50 [1, 8]: 49.6 nM; IC50 [2, 9]: 61.5 nM; IC50 [3, 10]: 77.2 nM; IC50 (NCI-H1975; [11]): 119 nM
CC[C@@]1(O)C(=O)OCc2c1cc1n(c2=O)Cc2c-1nc1cc3c(cc1c2CCN(CCOC)C(=O)CO)OCO3 [Compound 32, 7-(2-(N-Hydroxyacetyl(2-methoxyethyl))amino)ethyl-10,11-methylenedioxycamptothecin]	11.6 nM		2.09 nM	6.48 nM		
CC[C@@]1(O)C(=O)OCc2c1cc1n(c2=O)Cc2c-1nc1cc3c(cc1c2CCN(CC(F)F)C(=O)CO)OCO3 [Compound 33, 7-(2-(N-Hydroxyacetyl(2-difluoroethyl))amino)ethyl-10,11-methylenedioxycamptothecin]						IC50 [1, 8]: 11.9 nM; IC50 [2, 9]: 2.63 nM; IC50 [3, 10]: 8.93 nM
CC[C@@]1(O)C(=O)OCc2c1cc1n(c2=O)Cc2c-1nc1cc3c(cc1c2CCNC(=O)CN=[N+]=[N-])OCO3 [Compound 37, 7-(2-Azidoacetylamino)ethyl-10,11-methylenedioxycamptothecin]						IC50 [1, 8]: 25.2 nM; IC50 [2, 9]: 5.57 nM; IC50 [3, 10]: 41.3 nM; IC50 (NCI-H1975; [11]): 229 nM
CC[C@@]1(O)C(=O)OCc2c1cc1n(c2=O)Cc2c-1nc1cc3c(cc1c2CCNS(C)(=O)=O)OCO3 [Compound 38, 7-(2-Methanesulfonamido)ethyl-10,11-methylenedioxycamptothecin]						IC50 [1, 8]: 199 nM; IC50 [2, 9]: 48 nM; IC50 [3, 10]: 332 nM; IC50 (NCI-H1975; [11]): 282 nM
CC[C@@]1(O)C(=O)OCc2c1cc1n(c2=O)Cc2c-1nc1cc3c(cc1c2CCNc1ncn[nH]1)OCO3 [Compound 41, 7-(2-(1,2,4-Triazol-5-ylamino))ethyl-10,11-methylenedioxycamptothecin]						IC50 [1, 8]: 24.2 nM; IC50 [2, 9]: 33.9 nM; IC50 [3, 10]: 89.9 nM; IC50 (NCI-H1975; [11]): 136 nM
